Reference: patent publication US9254299B2, “Administration of hypoxia activated prodrugs in combination with Chk1 inhibitors for treating cancer” (THRESHOLD PHARMACEUTICALS, INC., priority 2011, dated 2016)
Entries after “also recorded” stand apart in the source; their conditions may differ. Read-outs that look alike come from different tables or passages of the source. Residues, ends and D or L forms follow the SMILES beside them. *: point of attachment. Cbz = O=C(OCc1ccccc1)*; CH2F = FC*

Experiments:
Hela cells [1] = assay: 3-day in vitro proliferation assay, AlamarBlue, Hela cells; type: cell-based; settings: for anti cancer efficacy in combination with TH-302: HeLa cervical cell line
Method: (§1) After a wash to remove drugs, cells were incubated with fresh media at 37° C. for an additional 3 days in the presence of a Chk1 inhibitor. Cell viability was determined using AlamarBlue. For a doxorubicin group (doxorubicin also induces cell cycle arrest in the G2/M phase and was used as a non-hypoxia activated prodrug control), cells were co-treated with doxorubicin and Chk1 inhibitors for 3 days.

HT29 cells [2] = assay: 3-day in vitro proliferation assay, AlamarBlue, HT29 cells; type: cell-based; settings: for anti cancer efficacy in combination with TH-302: HT-29 colon cell line
Method: as §1

H460 cells = assay: 3-day in vitro proliferation assay, AlamarBlue, H460 cells; type: cell-based; settings: for anti cancer efficacy in combination with TH-302: H460 non-small cell lung cell line; for change of activity by the presence of Chk1 inhibitors: H460, p53 wild type
Method: as §1

γH2AX = γH2AX immunofluorescence (DNA damage response); type: cell-based; settings: p53−/− HT29 cells; 2 hr normoxic or hypoxic, then 4 hr; AZD7762 0.1 μM
Method: HT29 cells were permeabilized with 1% Triton X-100 and incubated with γH2AX monoclonal antibody for 2 hr and goat anti-mouse-FITC for 1 hr. Cells were imaged using a fluorescent microscope (Nikon TS-100).

Cdc2-Y15 phosphorylation = assay: Immunoblot of Cdc2-Y15 phosphorylation and protein expression; type: cell-based; settings: for Cdc2-Y15 phosphorylation / DNA damaging agent-induced increase of Cdc2-Y15 phosphorylation in the presence of the Chk1 inhibitor: HeLa; for Cdc2-Y15 phosphorylation: agent alone; for DNA damaging agent-induced increase of Cdc2-Y15 phosphorylation in the presence of the Chk1 inhibitor: with Chk1 inhibitor
Method: (§2) HeLa cells were treated with TH-302 and a Chk1 inhibitor as described in Example 1. Cells were harvested and analyzed for cell cycle distribution by flow cytometry and for protein expression by immunoblot.

HT29 cells [3] = assay: Luminescence-based caspase activity assay (Caspase Glo3/7), apoptosis; type: cell-based; settings: for induction of apoptosis: TH-302 0-10 μM air, 0-1 μM N2, AZD7762 0.1 μM, 2 hr + 46 hr
Method: Induction of apoptosis was also assessed. HT29 cells were seeded at a density of 40,000 cells per well of a 24 well plate. […] A luminescence-based caspase activity assay was performed. […] To validate the specificity of apoptotic signal, the pan-caspase inhibitor ZVAD was included in the testing.

p53 deficient cells = assay: Proliferation assay in p53 deficient cells (Horizon Discovery); type: cell-based
Method: as §1
(§3) Cells (provided by Horizon Discovery Ltd. and generated using Horizon's adeno-associated virus (AAV) technology Genesis™) were treated as described in Example 1.

irs1SF = assay: Cytotoxicity in HDR deficient irs1SF cells; type: cell-based
Method: as §1
(§4) To investigate which DNA repair system is affected by Chk-1 inhibitor-mediated enhancement of TH-302 cytotoxicity, CHO cell-based DNA repair mutant cell line pairs were utilized. The experimental details were as described in Example 1. […] HDR (homology-dependent repair) is the specific type of DNA repair capable of repairing TH-302-induced DNA damage.

UV41 = assay: Cytotoxicity in HDR deficient UV41 cells; type: cell-based
Method: as §1, §4

Rad51 = assay: Immunoblot of Rad51 expression; type: cell-based; settings: HT29; samples as for the Histone H3 blot
Method: To explore involved signaling pathways, an immunoblot analysis was conducted. HT29 cells were seeded in p60 dishes at a density of 2×10^6 cells per dish and incubated overnight for cell attachment. […] Insoluble debris was pelleted and the protein concentration of the resulting supernatant determined using a Sigma BCA kit (St. Louis, Mo.). About 10 μg of protein from each sample were loaded onto and SDS gel and electrophoresed and then electrotransferred to a nitrocellulose membrane. Proteins were detected with an electrochemiluminescent detection system (ChemiGlow; Protein Simple, Santa Clara, Calif.) using antibodies recognizing Histone H3.
The samples were collected as described above for the Histone H3 blot. In response to TH-302, Rad51 expression levels were increased.

Du145 cells = assay: 3-day in vitro proliferation assay, AlamarBlue, Du145 cells; type: cell-based; settings: Du145, p53 heterozygous
Method: as §1
Appropriate Du145 and H460 cells were treated with TH-302 and Chk1 inhibitors as described in Example 1.

Hela cells [4] = assay: Cell cycle distribution by flow cytometry; type: cell-based
Method: as §2

p53 proficient cells = assay: Proliferation assay in p53 proficient cells (Horizon Discovery); type: cell-based
Method: as §1, §3

HT-29 tumor = assay: HT29 xenograft antitumor activity; type: in vivo; settings: HT-29 tumor-bearing mice, i.p., drug alone (TH-302 50 mg/kg QD×5/wk×2 wks or 100 mg/kg twice/wk×2 wks; AZD7762 12.5 mg/kg)
AA8 CHO cells = assay: Cytotoxicity in HDR proficient AA8 CHO cells; type: cell-based; settings: Cricetulus griseus
Method: as §1, §4

Chk2 = Chk2 (Homo sapiens, UniProt O96017); settings: read-out: IC50 for Chk2; cited from earlier work
Chain of Chk2 (O96017 whole entry): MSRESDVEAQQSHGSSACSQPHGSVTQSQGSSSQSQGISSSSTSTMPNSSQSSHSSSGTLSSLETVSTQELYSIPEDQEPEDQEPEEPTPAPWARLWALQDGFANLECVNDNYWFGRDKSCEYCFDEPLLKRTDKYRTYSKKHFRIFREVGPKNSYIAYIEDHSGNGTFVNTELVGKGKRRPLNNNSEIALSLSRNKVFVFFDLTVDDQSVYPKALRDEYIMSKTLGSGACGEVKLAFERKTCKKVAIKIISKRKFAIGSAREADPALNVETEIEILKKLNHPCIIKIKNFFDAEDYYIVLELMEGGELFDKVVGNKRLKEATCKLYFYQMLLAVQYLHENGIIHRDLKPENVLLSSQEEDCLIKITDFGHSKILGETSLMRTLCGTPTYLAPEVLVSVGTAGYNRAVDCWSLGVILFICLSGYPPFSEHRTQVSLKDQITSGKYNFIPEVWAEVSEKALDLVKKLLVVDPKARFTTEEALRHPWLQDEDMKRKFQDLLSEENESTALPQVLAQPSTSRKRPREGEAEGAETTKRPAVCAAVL

Cc1cnc(NC(=O)Nc2cc(Br)c(C)cc2OC[C@@H]2CNCCO2)cn1 [LY2603618]
anti cancer efficacy in combination with TH-302 (Hela cells [1]): increased anti cancer efficacy
anti cancer efficacy in combination with TH-302 (HT29 cells [2]): increased anti cancer efficacy
anti cancer efficacy in combination with TH-302 (H460 cells): not

PF477736
anti cancer efficacy in combination with TH-302 (Hela cells [1]): increased anti cancer efficacy
anti cancer efficacy in combination with TH-302 (HT29 cells [2]): increased anti cancer efficacy
anti cancer efficacy in combination with TH-302 (H460 cells): not

Cn1c(COP(=O)(NCCBr)NCCBr)cnc1[N+](=O)[O-] [TH-302]
γH2AX staining (γH2AX): could induce γH2AX
expression of Cdc-2, Myt1 and Chk1 (Cdc2-Y15 phosphorylation): does not affect
Cdc2-Y15 phosphorylation (Cdc2-Y15 phosphorylation): upregulate phosphorylation of Cdc2-Y15
DNA damaging agent-induced increase of Cdc2-Y15 phosphorylation in the presence of the Chk1 inhibitor (Cdc2-Y15 phosphorylation): completely eliminated
induction of apoptosis (HT29 cells [3]): did not induce apoptosis
change of activity by co-treatment with a Chk1 inhibitor (p53 deficient cells): significantly enhanced
IC50 (irs1SF; N2, read-out: IC50 of TH-302 monotherapy): 0.4 µM
IC50 (irs1SF; N2, with AZD7762 (0.1 μM), read-out: TH-302 IC50): 0.3 µM
IC50 (irs1SF; air, read-out: IC50 of TH-302 monotherapy): 54 µM
IC50 (irs1SF; air, with AZD7762 (0.1 μM), read-out: TH-302 IC50): 63 µM
IC50 (UV41; UV41, N2, with AZD7762 (0.1 μM), read-out: TH-302 IC50): 0.06 µM
IC50 (UV41; UV41, N2, read-out: IC50 of TH-302 monotherapy): 0.07 µM
IC50 (UV41; UV41, air, with AZD7762 (0.1 μM), read-out: TH-302 IC50): 26 µM
IC50 (UV41; UV41, air, read-out: IC50 of TH-302 monotherapy): 29 µM
Rad51 expression levels (Rad51): increased
enhancement of TH-302 activity by the presence of a Chk1 inhibitor (Hela cells [1]; Hela, p53-deficient, any one of PF477736, AZD7762, LY2603618): 15 to 50 fold
change of activity by the presence of Chk1 inhibitors (Hela cells [1]; Hela, 0.4 μM PF477736, 0.1 μM AZD7762 or 0.5 μM LY2603618, normoxia or hypoxia): significantly enhanced
change of activity by the presence of Chk1 inhibitors (Du145 cells): not enhanced
cell cycle arrest (Hela cells [4]; agent alone): concentration-dependent cell cycle arrest at G2/M
TH-302-mediated G2/M arrest in the presence of the Chk1 inhibitor (Hela cells [4]; with Chk1 inhibitor): abrogated
change of activity by co-treatment with a Chk1 inhibitor (p53 proficient cells): not
enhancement of TH-302 activity by the presence of a Chk1 inhibitor (HT29 cells [2]; HT29, p53-deficient, any one of PF477736, AZD7762, LY2603618): 15 to 50 fold
change of activity by the presence of Chk1 inhibitors (HT29 cells [2]; HT29, 0.4 μM PF477736, 0.1 μM AZD7762 or 0.5 μM LY2603618, normoxia or hypoxia): significantly enhanced
change of activity by the presence of Chk1 inhibitors (H460 cells): not enhanced; also recorded: not affected
tumor growth (HT-29 tumor): produced a growth delay
IC50 (AA8 CHO cells; AA8, N2, read-out: IC50 of TH-302 monotherapy): 3.2 µM
IC50 (AA8 CHO cells; AA8, N2, with AZD7762 (0.1 μM), read-out: TH-302 IC50): 1.2 µM
IC50 (AA8 CHO cells; AA8, air, read-out: IC50 of TH-302 monotherapy): 490 µM
IC50 (AA8 CHO cells; AA8, air, with AZD7762 (0.1 μM), read-out: TH-302 IC50): 260 µM

CC(NC(=O)C(NC(=O)OCc1ccccc1)C(C)C)C(=O)NC(CC(=O)O)C(=O)CF (stereo not drawn) [ZVAD] (Cbz-Val-Ala-Asp-CH2F; configuration not given here)
apoptotic signal generated by the combination therapy (HT29 cells [3]; added to TH-302 and AZD7762): reduced the apoptotic signal

NC(=O)Nc1cc(-c2cccc(F)c2)sc1C(=O)N[C@H]1CCCNC1 [AZD7762]
γH2AX staining (γH2AX): could induce γH2AX
induction of apoptosis (HT29 cells [3]): slight increase
anti cancer efficacy in combination with TH-302 (Hela cells [1]): increased anti cancer efficacy
IC50 (Chk2): < 0.01 µM
anti cancer efficacy in combination with TH-302 (HT29 cells [2]): increased anti cancer efficacy
anti cancer efficacy in combination with TH-302 (H460 cells): not
tumor growth (HT-29 tumor): produced a growth delay

COc1cccc2c1C(=O)c1c(O)c3c(c(O)c1C2=O)C[C@@](O)(C(=O)CO)C[C@@H]3O[C@H]1C[C@H](N)[C@H](O)[C@H](C)O1 [doxorubicin, reference compound]
Cdc2-Y15 phosphorylation (Cdc2-Y15 phosphorylation): upregulate phosphorylation of Cdc2-Y15
DNA damaging agent-induced increase of Cdc2-Y15 phosphorylation in the presence of the Chk1 inhibitor (Cdc2-Y15 phosphorylation): completely eliminated
change of activity by the presence of Chk1 inhibitors (Du145 cells): lack of enhanced activity
change of activity by the presence of Chk1 inhibitors (H460 cells): lack of enhanced activity
